# Test results from PubChem BioAssay AID1259407 (Chemical Carcinogenesis Research Information System (CCRIS), 2018).
# Active and inactive are the calls of the source. The rule behind the calls is not given here.
# Test system: CCRIS mutagenicity, Ames/micronucleus/aberration tests
# Experiment: CCRIS mutagenicity studies
# [1] = Test System: AMES SALMONELLA TYPHIMURIUM, Strain/Indicator: TA98, Metabolic Activation: NONE, Method: STANDARD PLATE
# [2] = Test System: AMES SALMONELLA TYPHIMURIUM, Strain/Indicator: TA100, Metabolic Activation: NONE, Method: STANDARD PLATE
structure (smiles),measurement,setting,value
COc1ccc(O)cc1,mutagenic call,"Test System: AMES SALMONELLA TYPHIMURIUM, Strain/Indicator: TA97, Metabolic Activation: NONE, Method: STANDARD PLATE",inactive; negative
same,mutagenic call,"Test System: AMES SALMONELLA TYPHIMURIUM, Strain/Indicator: TA97, Metabolic Activation: S-9, Method: STANDARD PLATE",inactive; negative
same,mutagenic call,"Test System: AMES SALMONELLA TYPHIMURIUM, Strain/Indicator: TA98, Metabolic Activation: HAMSTER, LIVER, S-9, AROCLOR 1254, Method: PREINCUBATION",inactive; negative
same,mutagenic call,"Test System: AMES SALMONELLA TYPHIMURIUM, Strain/Indicator: TA98, Metabolic Activation: NONE, Method: PREINCUBATION",inactive; negative
same,mutagenic call,[1],inactive; negative
same,mutagenic call,"Test System: AMES SALMONELLA TYPHIMURIUM, Strain/Indicator: TA98, Metabolic Activation: RAT, LIVER, S-9, AROCLOR 1254, Method: PREINCUBATION",inactive; negative
same,mutagenic call,"Test System: AMES SALMONELLA TYPHIMURIUM, Strain/Indicator: TA98, Metabolic Activation: S-9, Method: STANDARD PLATE",inactive; negative
same,mutagenic call,"Test System: AMES SALMONELLA TYPHIMURIUM, Strain/Indicator: TA100, Metabolic Activation: HAMSTER, LIVER, S-9, AROCLOR 1254, Method: PREINCUBATION",inactive; negative
same,mutagenic call,"Test System: AMES SALMONELLA TYPHIMURIUM, Strain/Indicator: TA100, Metabolic Activation: NONE, Method: PREINCUBATION",inactive; negative
same,mutagenic call,[2],inactive; negative
same,mutagenic call,"Test System: AMES SALMONELLA TYPHIMURIUM, Strain/Indicator: TA100, Metabolic Activation: RAT, LIVER, S-9, AROCLOR 1254, Method: PREINCUBATION",inactive; negative
same,mutagenic call,"Test System: AMES SALMONELLA TYPHIMURIUM, Strain/Indicator: TA100, Metabolic Activation: S-9, Method: STANDARD PLATE",inactive; negative
same,mutagenic call,"Test System: AMES SALMONELLA TYPHIMURIUM, Strain/Indicator: TA102, Metabolic Activation: NONE, Method: STANDARD PLATE",inactive; negative
same,mutagenic call,"Test System: AMES SALMONELLA TYPHIMURIUM, Strain/Indicator: TA102, Metabolic Activation: S-9, Method: STANDARD PLATE",inactive; negative
same,mutagenic call,"Test System: AMES SALMONELLA TYPHIMURIUM, Strain/Indicator: TA1535, Metabolic Activation: HAMSTER, LIVER, S-9, AROCLOR 1254, Method: PREINCUBATION",inactive; negative
same,mutagenic call,"Test System: AMES SALMONELLA TYPHIMURIUM, Strain/Indicator: TA1535, Metabolic Activation: NONE, Method: PREINCUBATION",inactive; negative
same,mutagenic call,"Test System: AMES SALMONELLA TYPHIMURIUM, Strain/Indicator: TA1535, Metabolic Activation: RAT, LIVER, S-9, AROCLOR 1254, Method: PREINCUBATION",inactive; negative
same,mutagenic call,"Test System: AMES SALMONELLA TYPHIMURIUM, Strain/Indicator: TA1537, Metabolic Activation: HAMSTER, LIVER, S-9, AROCLOR 1254, Method: PREINCUBATION",inactive; negative
same,mutagenic call,"Test System: AMES SALMONELLA TYPHIMURIUM, Strain/Indicator: TA1537, Metabolic Activation: NONE, Method: PREINCUBATION",inactive; negative
same,mutagenic call,"Test System: AMES SALMONELLA TYPHIMURIUM, Strain/Indicator: TA1537, Metabolic Activation: RAT, LIVER, S-9, AROCLOR 1254, Method: PREINCUBATION",inactive; negative
same,mutagenic call,"Test System: E.COLI, Strain/Indicator: WP2 (PKM101), Metabolic Activation: NONE, Method: STANDARD PLATE",inactive; negative
same,mutagenic call,"Test System: E.COLI, Strain/Indicator: WP2 (PKM101), Metabolic Activation: S-9, Method: STANDARD PLATE",inactive; negative
CC1CCC(C(C)C)C(OC(=O)c2ccccc2N)C1 (stereo not drawn),mutagenic call,"Test System: AMES SALMONELLA TYPHIMURIUM, Strain/Indicator: TA98, Metabolic Activation: HAMSTER, LIVER, S-9, AROCLOR 1254 (10%), Method: STANDARD PLATE",inactive; negative
same,mutagenic call,[1],inactive; negative
same,mutagenic call,"Test System: AMES SALMONELLA TYPHIMURIUM, Strain/Indicator: TA98, Metabolic Activation: RAT, LIVER, S-9, AROCLOR 1254 (10%), Method: STANDARD PLATE",inactive; negative
same,mutagenic call,"Test System: AMES SALMONELLA TYPHIMURIUM, Strain/Indicator: TA100, Metabolic Activation: HAMSTER, LIVER, S-9, AROCLOR 1254 (10%), Method: STANDARD PLATE",inactive; negative
same,mutagenic call,[2],inactive; negative
same,mutagenic call,"Test System: AMES SALMONELLA TYPHIMURIUM, Strain/Indicator: TA100, Metabolic Activation: RAT, LIVER, S-9, AROCLOR 1254 (10%), Method: STANDARD PLATE",inactive; negative
same,mutagenic call,"Test System: AMES SALMONELLA TYPHIMURIUM, Strain/Indicator: TA1535, Metabolic Activation: HAMSTER, LIVER, S-9, AROCLOR 1254 (10%), Method: STANDARD PLATE",inactive; negative
same,mutagenic call,"Test System: AMES SALMONELLA TYPHIMURIUM, Strain/Indicator: TA1535, Metabolic Activation: NONE, Method: STANDARD PLATE",inactive; negative
same,mutagenic call,"Test System: AMES SALMONELLA TYPHIMURIUM, Strain/Indicator: TA1535, Metabolic Activation: RAT, LIVER, S-9, AROCLOR 1254 (10%), Method: STANDARD PLATE",inactive; negative
same,mutagenic call,"Test System: AMES SALMONELLA TYPHIMURIUM, Strain/Indicator: TA1537, Metabolic Activation: HAMSTER, LIVER, S-9, AROCLOR 1254 (10%), Method: STANDARD PLATE",inactive; negative
same,mutagenic call,"Test System: AMES SALMONELLA TYPHIMURIUM, Strain/Indicator: TA1537, Metabolic Activation: NONE, Method: STANDARD PLATE",inactive; negative
same,mutagenic call,"Test System: AMES SALMONELLA TYPHIMURIUM, Strain/Indicator: TA1537, Metabolic Activation: RAT, LIVER, S-9, AROCLOR 1254 (10%), Method: STANDARD PLATE",inactive; negative
same,mutagenic call,"Test System: AMES SALMONELLA TYPHIMURIUM, Strain/Indicator: TA1538, Metabolic Activation: HAMSTER, LIVER, S-9, AROCLOR 1254 (10%), Method: STANDARD PLATE",inactive; negative
same,mutagenic call,"Test System: AMES SALMONELLA TYPHIMURIUM, Strain/Indicator: TA1538, Metabolic Activation: NONE, Method: STANDARD PLATE",inactive; negative
same,mutagenic call,"Test System: AMES SALMONELLA TYPHIMURIUM, Strain/Indicator: TA1538, Metabolic Activation: RAT, LIVER, S-9, AROCLOR 1254 (10%), Method: STANDARD PLATE",inactive; negative
same,mutagenic call,"Test System: MOUSE LYMPHOMA, Strain/Indicator: L5178Y (TK+/TK-), Metabolic Activation: NONE, Method: SUSPENSION/PLATE",inactive; negative. reevaluation of results: negative
same,mutagenic call,"Test System: MOUSE LYMPHOMA, Strain/Indicator: L5178Y (TK+/TK-), Metabolic Activation: RAT, LIVER, S-9, AROCLOR 1254, Method: SUSPENSION/PLATE",inactive; negative. reevaluation of results: equivocal
COc1cc(N=Nc2ccccc2)ccc1N,mutagenic call,"Test System: AMES SALMONELLA TYPHIMURIUM, Strain/Indicator: TA98, Metabolic Activation: RAT LIVER, CYTOSOL, AROCLOR 1254, Method: PREINCUBATION",inactive; negative
same,mutagenic call,"Test System: AMES SALMONELLA TYPHIMURIUM, Strain/Indicator: TA98, Metabolic Activation: RAT LIVER, MICROSOMES, AROCLOR 1254, Method: PREINCUBATION",active; positive
same,mutagenic call,"Test System: AMES SALMONELLA TYPHIMURIUM, Strain/Indicator: TA98, Metabolic Activation: RAT, LIVER, MICROSOMES, 3-METHOXY-4-AMINOAZOBENZENE, Method: PREINCUBATION",inactive; negative
same,mutagenic call,"Test System: AMES SALMONELLA TYPHIMURIUM, Strain/Indicator: TA98, Metabolic Activation: RAT, LIVER, MICROSOMES, AROCLOR 1254, Method: PREINCUBATION",active; positive
same,mutagenic call,"Test System: AMES SALMONELLA TYPHIMURIUM, Strain/Indicator: TA98, Metabolic Activation: RAT, LIVER, MICROSOMES, Method: PREINCUBATION",inactive; negative
same,mutagenic call,"Test System: AMES SALMONELLA TYPHIMURIUM, Strain/Indicator: TA98, Metabolic Activation: RAT, LIVER, S-9, AROCLOR 1254, Method: STANDARD PLATE",active; positive
same,mutagenic call,"Test System: AMES SALMONELLA TYPHIMURIUM, Strain/Indicator: TA98, Metabolic Activation: RAT, LIVER, S-9, KC500 OR PHENOBARBITAL, Method: LIQUID SUSPENSION",active; positive
same,mutagenic call,"Test System: AMES SALMONELLA TYPHIMURIUM, Strain/Indicator: TA100, Metabolic Activation: RAT, LIVER, S-9, KC500 OR PHENOBARBITAL, Method: LIQUID SUSPENSION",active; positive
same,mutagenic call,"Test System: AMES SALMONELLA TYPHIMURIUM, Strain/Indicator: TA1538, Metabolic Activation: RAT, LIVER, S-9, AROCLOR 1254, Method: STANDARD PLATE",active; positive
